Measurements reported in patent US9757361B2, “Treatment of psoriasis and of other skin disorders associated with inhibition of differentiation of epidermal cells” (priority 2001, dated 2017).
Entries after “also recorded” stand apart in the source; their conditions may differ.

Columns and labels:
psoriatic lesional skin = assay: Histopathological examination (H&E) of treated psoriatic lesional skin; format: in vivo, human; conditions: treated half of lesion, 24th hour
Description: (§1) At intervals of 4 hours, approximately 30 μl cream was applied directly onto the lesion and the cream-applied region was covered against accidental smearing and loss of the cream (FIG. 1 B).
FIG. 2A to FIG. 2W show histopathological and immunohistochemical examination findings of the tissue sections from the non-lesional skin, cyclopamine-treated lesional skin and non-treated lesional skin. Compared to the non-lesional skin (FIG. 2A), the non-treated lesional skin (FIG. 2B) is seen to display the typical histopathological signs of a psoriatic skin lesion mentioned above in the “Background of Invention”. Tissue sections from the cyclopamine-treated half of the original lesion reveal, however, dramatic improvement and regression to normalcy. These histopathological signs of regression to normalcy, exemplified in the FIG. 2C and FIG. 2D (examples from other cyclopamine-treated lesions and patients are given later) include the following: […]

cytokeratin 15 = assay: Immunohistochemical staining with the C8/144B antibody (cytokeratin 15); conditions: 24th hour
Text: (§2) All antibodies and reagents for these immunohistochemical investigations were purchased from DAKO (Glostrup, Denmark); human Ki-67 antigen was detected by the monoclonal antibody M7187, human epithelial antigen was detected by the monoclonal antibody Ber-EP4, human CD4 antigen was detected by the monoclonal antibody M0716, human CD8 antigen was detected by the monoclonal antibody C8/144B. Besides the CD8 antigen, the monoclonal antibody C8/144B is known to recognize and bind to the cytokeratin 15 expressed by the hair stem cells (Kanitakis J. et al. (1999) Eur. J. Dermatol. 9:363-365). A DAKO “universal visualization kit” (LSAB2) employing biotinylated secondary antibody and peroxidase-conjugated streptavidin (pre-diluted to match the dilutions of DAKO-supplied primary antibodies) was used for the visualization reactions. All reaction conditions were as recommended by the manufacturer.

psoriatic lesions = assay: Topical treatment of psoriatic lesions of patients, clinical response and EES scoring; format: in vivo, human
Description: The base cream used is made predominantly of heavy paraffin oil (10% w/w), vaseline (10% w/w), stearyl alcohol (8% w/w), polyoxylsteareth-40 (3% w/w) and water (68% w/w) but another suitably formulated base cream is also possible. […] The dosing and the application schedules followed for the lesion shown in FIG. 1A (psoriatic plaque on the dorsum of hand) are as follows: about 30 μl cream applied directly onto the lesion with the aid of a steel spatula every four hours for 24 hours. The cream-applied area is protected from accidental smearing and loss of the cream by covering with an aluminum applicator (FIG. 1 B). The dosing and the application schedules followed for the lesion shown in FIG. 1 D (psoriatic plaque at the scapular region) are as follows: about 30 μl cream applied directly onto the lesion every four hours for 24 hours. The cream-applied area is similarly covered against the smearing and loss of cream. Other treated psoriatic patients and lesions received from about 30 to 35 μl cream to each lesion at intervals of every 3 to 5 hours, as suitable and convenient. Lesions were similarly covered against the smearing and loss of cream. […] The corticosteroid used for treatment of the lesion shown in FIG. 4E was clobetasol 17-propionate in a final concentration of about 1.1 mM in base cream. […] Other corticosteroid molecules well known in the art are contemplated to be also suitable and capable of replacing the above-mentioned corticosteroid molecules at suitable concentrations (the suitable concentration ranges for corticosteroids are also known in the art).
as §1
Treatment was then discontinued and the lesion was followed-up.
Severity of psoriatic lesions can be assessed on a semi-quantitative scale by giving separate scores for the erythema, elevation and scaling of a lesion and then by summing up the scores to obtain a score called the EES score of that lesion (Bowman P. H. et al. (2002) J. Am. Acad. Dermatol. 46:907-913).

[1] = test system: epithelial antigen (Ber-EP4); assay: Immunohistochemical staining for the epithelial antigen with the Ber-EP4 antibody; format: in vivo, human; conditions: 24th hour
Text: (§3) All reaction conditions were as recommended by the manufacturer.
The monoclonal antibody Ber-EP4 is known to label the basal layer cells in normal epidermis. The outer root sheath of hair follicles, where the hair stem cells are thought to reside, are also known to be labeled with Ber-EP4.

CD44 = assay: Immunohistochemical staining for the CD44 antigen; format: in vivo, human; conditions: lesional skin, 24th hour of treatment
Text: What might be the key/proximal pathogenic event(s) intervened by cyclopamine? […] Both FIG. 4G and a closer-up view on FIG. 4H show decreased CD44 expression in the suprabasal and spinous layers in lesional epidermis in comparison to the situation in non-lesional epidermis.

CD4 positive lymphocytes = assay: Immunohistochemical staining for the CD4 antigen in lesional skin; format: in vivo, human; conditions: treated half of lesion, 24th hour
Text: as §3
Moreover, conversion of the CD4(−) and CD8(−) lymphocytes to the CD4(+) and CD8(+) lymphocytes is viewed widely in the prior art as a requirement for their psoriatic plaque causing action [reviewed in Krueger J G (2002) Journal of the American Academy of Dermatology 46:1-23].

Ki-67 antigen = conditions: treated lesional skin, 24th hour
Text: as §2
The Ki-67 antigen is a marker of the proliferating cells.

[2] = test system: basal cell carcinoma cells; conditions: found earlier, PCT/TR 01/00027; cited from earlier work
EGFR = assay: Immunohistochemical staining for EGFR; format: in vivo, human; conditions: lesional skin treated with cyclopamine cream for 24 hours
Text: Epidermal growth factor receptor (EGFR) is another marker known to display downregulation of expression with the differentiation of epidermal keratinocytes. […] Ordinarily EGFR expression is not detected immunohistochemically in the suprabasal layers of normal epidermis and the return of EGFR expression to the basal layer of epidermis is regarded to be one of the first signs of effective treatment of psoriasis by various modalities [King L E Jr. et al (1990) Journal of Investigative Dermatology 95: 10S-12S]. We evaluated the EGFR expression with anti-human EGFR antibody EGFR 113 (Novocastra Lab. Ltd., U.K.) and with immunohistochemical staining with peroxidase.

[3] = Follow-up of healthy / non-lesional skin after topical cyclopamine for adverse effects; conditions: for adverse effect of topical application on healthy / non-lesional skin: described concentration and dosing conditions

## CC1=C2C[C@H]3[C@@H](CC=C4C[C@@H](O)CC[C@@]43C)[C@@H]2CC[C@]12O[C@@H]1C[C@H](C)CN[C@H]1[C@H]2C [cyclopamine]
Psoriatic lesional skin
  granular layer of epidermis: Vigorous re-appearance
  hyperkeratosis and parakeratosis in the stratum corneum: decreased but full normalization of this oldest epidermal layer did not yet happen
  inflammatory cells infiltrating the subepidermal dermis: Disappearance from the cyclopamine-treated lesional skin of most of the inflammatory cells
  rete ridges and epidermal hyperplasia: Return of the thickened and elongated rete ridges to normal levels and marked decrease of epidermal hyperplasia
  suprapapillary epidermis and papillary edema: Return of the thinning of the suprapapillary epidermis to normalcy and the disappearance of papillary edema
Cytokeratin 15; non-lesional skin
  cytokeratin 15 in basal cells of non-lesional epidermis after exposure: continued to be positive for the cytokeratin 15
Cytokeratin 15; treated lesional skin
  C8/144B (cytokeratin 15) labeling of epidermal basal layer cells of lesional skin: consistent restoration of the lost cytokeratin 15 expression; also recorded: normalized and became labeled by the C8/144B antibody
Psoriatic lesions; 18 mM cyclopamine cream every fourth hour for 24 hours, then follow-up without treatment
  day on which the lesion cleared / became undetectable: > 8 days
Psoriatic lesions; application every fourth hour until clearance
  days of continued treatment until the lesion cleared: 3 to 4 days
Psoriatic lesions; human, in vivo
  lesions subjected to single-day treatment that failed to clear completely: about 29%
Psoriatic lesions; patients 29 to 57 years, lesions on extremities to trunk
  effectiveness on treated psoriatic lesions of different patients and body parts: highly effective on every psoriatic lesion for which it was used
Psoriatic lesions; plaque at left scapular region, 1 day of treatment, FIG. 1F
  appearance of lesion site on the 14th day of follow-up: No lesion is visible, skin appears normal
Psoriatic lesions; plaque at left scapular region, FIG. 1E
  appearance of lesion after 1 day of treatment and 7 days of follow-up: With the possible exception of slight erythema, lesion is no longer visible
Psoriatic lesions; scapular plaque, 1 day of treatment
  site of the treated lesion over a month of follow-up: healthy-looking normal skin
[1]; non-lesional skin in psoriasis
  Ber-EP4 staining of basal cells of non-lesional skin after exposure: remained Ber-EP4 positive
[1]; treated lesional skin
  Ber-EP4 labeling of epidermal basal layer cells of lesional skin: cyclopamine-induced reversion to normalcy; also recorded: Epidermal basal layer cells are seen to display the epithelial antigen; also recorded: reverted to normalcy
CD44
  CD44 expression in lesional epidermis: rapid induction and normalization of the CD44 expression; also recorded: increase and normalization of the expression of CD44
CD4 positive lymphocytes
  CD4 positive lymphocytes infiltrating the lesional skin: Disappearance of the CD4 positive lymphocytes from the dermis of treated area; also recorded: largely cleared
Ki-67 antigen
  frequency and epidermal position of Ki-67 antigen positive cells: Return of the Ki-67 displaying cells to the epidermal basal layer; also recorded: return of both the frequency and the epidermal position of the Ki-67 antigen positive cells to normalcy
[2]
  Ber-EP4 staining of basal cells of normal epidermis exposed under the same conditions: continued to be Ber-EP4 positive
  effect on basal cell carcinoma cells (differentiation, Ber-EP4 staining): cause their differentiation and caused loss of their Ber-EP4 staining
EGFR
  EGFR expression in lesional epidermis: rapidly normalized within 24 hours
[3]; at the time of writing of the invention
  longest duration of follow-up of healthy skin with no adverse effect found: over 14 months
[3]
  adverse effect of topical application on healthy / non-lesional skin: no adverse effect has been detected
[3]; listed as Cyclopamine
  adverse effect of topical application on healthy / non-lesional skin: did not adversely affect the non-lesional skin; also recorded: no detectable adverse effect
[3]; interval since filing of PCT/TR 02/00017
  follow-up of skin sites of application showing healthy-looking normal skin and hair: more than 31 months
